The target in one test is T1, PARP (Homo sapiens, UniProt P09874).
T1 construct: purchased Trevigen 4684-096-01 (enzyme); kit 4684-096-K HT
Description: PARP ELISA colorimetric assay of inhibition of PARP catalytic activity (IC50). It is filed as biochemical. The following applies: pIC50=-log(IC50), IC50 in molar concentration; ELISA-based PARP kit, 10 minutes of catalysis. As for the experimental part:
Inhibition Constant (IC50) from PARP ELISA
Inhibition of PARP catalytic activity was determined by use of an ELISA-based colorimetric PARP/Apoptosis Assay kit (part number 4684-096-K HT, Trevigen). To each histone coated well in the 96-well plate supplied by the manufacturer (part number 4677-096-P) is added 39 μl of PARP buffer (part number 4671-096-02) and 1 μl of test compound dissolved in DMSO (diluted serially 3-fold 11 times). After mixing, 5 μl of 0.1 nM PARP (part number 4684-096-01) is added and the solution allowed to stand at ambient temperature for 10 minutes. PARP catalysis is initiated with the addition of 5 μl of 100 μM β-nicotinamide adenine dinucleotide (NAD+) (part number 4684-096-02) with activated DNA (part number 4671-096-06). After 10 minutes of catalysis the reaction is quenched by solvent aspiration followed by irrigation of the assay wells 4 times with phosphate buffered saline (PBS) containing 0.1% t-Octylphenoxypolyethoxyethanol (Triton® X-100). Mouse Anti-poly ADP ribose (PAR) monoclonal antibody, goat antimouse immunoglobulin G (IgG)-horse radish peroxidase (HRP) conjugate and HRP substrate are added according to the manufacture's specifications to generate a colorimetric signal proportional to PARP catalytic activity. An IC50 for the test compound is calculated from the equation Absorbance=(Amax−background)/(1+([cmpd]/IC50)^n)+background fit to the 12 point test compound concentration gradient via nonlinear least squares.
In general terms: ELISA stands for enzyme-linked immunosorbent assay.

For a further test, the system named is Jurkat cell line. Put plainly: PARP cellular chemopotentiation assay (MTS cell viability with and without TMZ). In kind it is cell-based. The note with it: ratio of EC50 for inhibition of cell viability without and with 100 μM TMZ; Jurkat cells, 96 hours of treatment. As for the experimental part: Potentiation Factor (PF50) Determination from PARP Cellular Chemopotentiation Assay
Jurkat cell line was maintained according to the supplier (American Type Culture Collection (Rockville, Md.)). Cells were seeded in 96-well tissue culture microplates at 10,000 cells per well and cultured for 24 hours prior to addition of compounds, TMZ (Temozolomide) or DMSO (dimethylsulfoxide) vehicle. After 96 hours of treatment, the conversion of MTS ([3-(4,5-dimethylthiazol-2-yl)-5-(3-carboxymethoxyphenyl)-2-(4-sulfophenyl)-2H-tetrazolium, inner salt], Promega, Madison, Wis.) by metabolically active cells was determined through measuring the OD490 nm with a Spectramax microplate reader (Molecular Devices, San Diego, Calif.). To generate concentration-response curves, cells were treated in duplicate with a range of serial compound dilutions (final DMSO concentration was 0.5%) in the absence or presence of 100 μM TMZ chemoreagent. The percentage of viable cells per well was calculated by correction for background and normalizing against DMSO-treated cells. EC50 values for inhibition of cell viability were calculated using XLfit4 MicroSoft Excel curve-fitting software. Chemopotentiation factor PF50 was calculated as the ratio of EC50 values of cells co-treated without and with TMZ, respectively.

T1 sequence (P09874 whole entry): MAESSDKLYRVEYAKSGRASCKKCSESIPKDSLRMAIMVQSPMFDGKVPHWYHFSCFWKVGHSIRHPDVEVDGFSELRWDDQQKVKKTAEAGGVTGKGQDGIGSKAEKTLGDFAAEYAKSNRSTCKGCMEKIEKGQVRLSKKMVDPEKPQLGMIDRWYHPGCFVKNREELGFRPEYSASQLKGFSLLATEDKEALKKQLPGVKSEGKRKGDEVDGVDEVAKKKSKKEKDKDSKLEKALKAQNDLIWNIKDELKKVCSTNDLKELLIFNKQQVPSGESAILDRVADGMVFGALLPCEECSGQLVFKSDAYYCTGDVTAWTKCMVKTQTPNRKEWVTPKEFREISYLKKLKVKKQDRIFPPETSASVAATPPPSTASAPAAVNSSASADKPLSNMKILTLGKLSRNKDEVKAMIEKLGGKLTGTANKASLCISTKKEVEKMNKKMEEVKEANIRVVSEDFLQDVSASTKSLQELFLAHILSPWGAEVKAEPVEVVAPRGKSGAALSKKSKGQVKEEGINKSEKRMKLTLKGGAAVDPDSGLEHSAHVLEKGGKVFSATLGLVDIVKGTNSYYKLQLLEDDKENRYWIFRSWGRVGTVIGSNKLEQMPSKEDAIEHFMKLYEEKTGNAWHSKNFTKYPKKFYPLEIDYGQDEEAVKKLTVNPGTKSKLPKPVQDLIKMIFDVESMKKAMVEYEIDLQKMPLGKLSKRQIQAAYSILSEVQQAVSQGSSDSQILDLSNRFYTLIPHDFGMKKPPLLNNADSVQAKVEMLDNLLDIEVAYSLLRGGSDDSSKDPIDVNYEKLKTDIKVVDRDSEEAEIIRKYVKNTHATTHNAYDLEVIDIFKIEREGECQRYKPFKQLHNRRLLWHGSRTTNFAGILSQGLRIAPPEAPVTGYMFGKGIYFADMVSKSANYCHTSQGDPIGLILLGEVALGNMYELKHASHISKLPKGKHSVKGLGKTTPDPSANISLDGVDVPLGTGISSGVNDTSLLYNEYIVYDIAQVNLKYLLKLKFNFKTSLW

As a reminder, the IC50 is the concentration needed to halve the response being measured. A higher IC50 goes with lower potency. For `CNC(=O)c1ccc(N2CCN(Cc3cnc4c(c3)NC(=O)[C@@H]3CCCN43)CC2)nc1` [Compound 6, (S)—N-methyl-6-(4-((6-oxo-5,6,6a,7,8,9-hexahydropyrido[3,2-e]pyrrolo[1,2-a]pyrazin-3-yl)methyl)piperazin-1-yl)nicotinamide], at PARP, the IC50 was at most 0.0126 µM. Also, the PF50 in the test on Jurkat cell line is listed as above 10.
The like results for `CNC(=O)c1ccc(N2CCN(Cc3cnc4c(c3)NC(=O)[C@@H]3CCCN43)CC2)cc1` [Compound 11, (S)—N-methyl-4-(4-((6-oxo-5,6,6a,7,8,9-hexahydropyrido[3,2-e]pyrrolo[1,2-a]pyrazin-3-yl)methyl)piperazin-1-yl)benzamide] were, in that order, 0.0158 to 0.0398 µM and above 10.
The like results for `CC(C)NC(=O)c1ccc(N2CCN(Cc3cnc4c(c3)NC(=O)[C@@H]3CCCN43)CC2)cc1` [Compound 12, (S)—N-isopropyl-4-(4-((6-oxo-5,6,6a,7,8,9-hexahydropyrido[3,2-e]pyrrolo[1,2-a]pyrazin-3-yl)methyl)piperazin-1-yl)benzamide] were, in that order, 0.0158 to 0.0398 µM and above 10.
The like results for `O=C1Nc2cc(CN3CCN(c4ccc(F)cc4)CC3)cnc2N2CCC[C@@H]12` [Compound 24, (S)-3-((4-(4-fluorophenyl)piperazin-1-yl)methyl)-6a,7,8,9-tetrahydropyrido[3,2-e]pyrrolo[1,2-a]pyrazin-6(5H)-one] were, in that order, 0.0158 to 0.0398 µM and above 5000.
At PARP, `Cc1cccc(N2CCN(Cc3cnc4c(c3)NC(=O)[C@@H]3CCCN43)CC2)c1` [Compound 29, (S)-3-((4-m-tolylpiperazin-1-yl)methyl)-6a,7,8,9-tetrahydropyrido[3,2-e]pyrrolo[1,2-a]pyrazin-6(5H)-one] showed an IC50 of at least 0.0501 µM. In the test on Jurkat cell line, the PF50 was above 500.
At PARP, `O=C1Nc2cc(CN3CCN(c4ccc(Br)cc4)CC3)cnc2N2CCC[C@@H]12` [Compound 37, (S)-3-((4-(4-bromophenyl)piperazin-1-yl)methyl)-6a,7,8,9-tetrahydropyrido[3,2-e]pyrrolo[1,2-a]pyrazin-6(5H)-one] had an IC50 of at least 0.0501 µM. In addition, the PF50 in the test with Jurkat cell line is above 2000.
The corresponding values for `O=C1Nc2cc(CN3CCN(c4ccc(Cl)cn4)CC3)cnc2N2CCC[C@@H]12` [Compound 42, (S)-3-((4-(5-chloropyridin-2-yl)piperazin-1-yl)methyl)-6a,7,8,9-tetrahydropyrido[3,2-e]pyrrolo[1,2-a]pyrazin-6(5H)-one] are at least 0.0501 µM and above 500.
With `COC(=O)c1ccc(N2CCN(Cc3cnc4c(c3)NC(=O)[C@@H]3CCCN43)CC2)cc1` [Compound 45, (S)-methyl 4-(4-((6-oxo-5,6,6a,7,8,9-hexahydropyrido[3,2-e]pyrrolo[1,2-a]pyrazin-3-yl)methyl)piperazin-1-yl)benzoate], on PARP, the IC50 was 0.0158 to 0.0398 µM. In addition, the PF50 in the test on Jurkat cell line is above 10.
As for `O=C1Nc2cc(CN3CCN(c4ccc(Cl)c(F)c4)CC3)cnc2N2CCC[C@@H]12` [Compound 47, (S)-3-((4-(4-chloro-3-fluorophenyl)piperazin-1-yl)methyl)-6a,7,8,9-tetrahydropyrido[3,2-e]pyrrolo[1,2-a]pyrazin-6(5H)-one], the IC50 on PARP was at least 0.0501 µM. Moreover, in the test with Jurkat cell line, the PF50 is above 10.
The molecule `O=C1Nc2cc(CN3CC=C(c4ccc(Cl)cc4)CC3)cnc2N2CCCC[C@@H]12` [Compound 68, (S)-3-((4-(4-chlorophenyl)-5,6-dihydropyridin-1(2H)-yl)methyl)-7,8,9,10-tetrahydro-5H-dipyrido[1,2-a:3′,2′-e]pyrazin-6(6aH)-one] showed a half-maximal inhibitory concentration (IC50) against PARP of at most 0.0126 µM. In the test with Jurkat cell line, the PF50 is reported as above 5000.
Take `O=C1Nc2cc(CN3CCN(c4ccc(-c5ccccn5)cc4)CC3)cnc2N2CCCC[C@@H]12` [Compound 157, (S)-3-((4-(4-(pyridin-2-yl)phenyl)piperazin-1-yl)methyl)-7,8,9,10-tetrahydro-5H-dipyrido[1,2-a:3′,2′-e]pyrazin-6(6aH)-one]: the IC50 on PARP is at least 0.0501 µM.
In turn, `O=C1Nc2cc(CN3CCN(c4ccc(-c5cccnc5)cc4)CC3)cnc2N2CCCC[C@@H]12` [Compound 158, (S)-3-((4-(4-(pyridin-3-yl)phenyl)piperazin-1-yl)methyl)-7,8,9,10-tetrahydro-5H-dipyrido[1,2-a:3′,2′-e]pyrazin-6(6aH)-one] had an IC50 at PARP of at least 0.0501 µM.
Still for that read-out and setting: then `Cc1ccc(-c2ccc(N3CCN(Cc4cnc5c(c4)NC(=O)[C@@H]4CCCCN54)CC3)cc2)s1` [Compound 159, (S)-3-((4-(4-(5-methylthiophen-2-yl)phenyl)piperazin-1-yl)methyl)-7,8,9,10-tetrahydro-5H-dipyrido[1,2-a:3′,2′-e]pyrazin-6(6aH)-one], with at least 0.0501 µM; and `O=C1Nc2cc(CN3CCN(c4ccc(-c5ccccc5CO)cc4)CC3)cnc2N2CCCC[C@@H]12` [Compound 160, (S)-3-((4-(2′-(hydroxymethyl)biphenyl-4-yl)piperazin-1-yl)methyl)-7,8,9,10-tetrahydro-5H-dipyrido[1,2-a:3′,2′-e]pyrazin-6(6aH)-one], with at least 0.0501 µM; and `Cc1cscc1-c1ccc(N2CCN(Cc3cnc4c(c3)NC(=O)[C@@H]3CCCCN43)CC2)cc1` [Compound 161, (S)-3-((4-(4-(4-methylthiophen-3-yl)phenyl)piperazin-1-yl)methyl)-7,8,9,10-tetrahydro-5H-dipyrido[1,2-a:3′,2′-e]pyrazin-6(6aH)-one], with at least 0.0501 µM.
On to `Cc1ccsc1-c1ccc(N2CCN(Cc3cnc4c(c3)NC(=O)[C@@H]3CCCCN43)CC2)cc1` [Compound 162, (S)-3-((4-(4-(3-methylthiophen-2-yl)phenyl)piperazin-1-yl)methyl)-7,8,9,10-tetrahydro-5H-dipyrido[1,2-a:3′,2′-e]pyrazin-6(6aH)-one], for which, on PARP, the IC50 is at least 0.0501 µM.
As to `O=C1CCC=C1c1ccc(N2CCN(Cc3cnc4c(c3)NC(=O)[C@@H]3CCCCN43)CC2)cc1` [Compound 163, (S)-3-((4-(4-(5-oxocyclopent-1-enyl)phenyl)piperazin-1-yl)methyl)-7,8,9,10-tetrahydro-5H-dipyrido[1,2-a:3′,2′-e]pyrazin-6(6aH)-one], the IC50 against PARP is at least 0.0501 µM.
Take `Cc1ccc(-c2ccc(N3CCN(Cc4cnc5c(c4)NC(=O)[C@@H]4CCCCN54)CC3)cc2)cn1` [Compound 164, (S)-3-((4-(4-(6-methylpyridin-3-yl)phenyl)piperazin-1-yl)methyl)-7,8,9,10-tetrahydro-5H-dipyrido[1,2-a:3′,2′-e]pyrazin-6(6aH)-one]: the IC50 against PARP was 0.0158 to 0.0398 µM.
Molecule `Cn1cc(-c2ccc(N3CCN(Cc4cnc5c(c4)NC(=O)[C@@H]4CCCCN54)CC3)cc2)cn1` [Compound 165, (S)-3-((4-(4-(1-methyl-1H-pyrazol-4-yl)phenyl)piperazin-1-yl)methyl)-7,8,9,10-tetrahydro-5H-dipyrido[1,2-a:3′,2′-e]pyrazin-6(6aH)-one] had an IC50 at PARP of 0.0158 to 0.0398 µM.
Molecule `Cc1ccnc(-c2ccc(N3CCN(Cc4cnc5c(c4)NC(=O)[C@@H]4CCCCN54)CC3)cc2)c1` [Compound 166, (S)-3-((4-(4-(4-methylpyridin-2-yl)phenyl)piperazin-1-yl)methyl)-7,8,9,10-tetrahydro-5H-dipyrido[1,2-a:3′,2′-e]pyrazin-6(6aH)-one] had an IC50 on PARP of 0.0158 to 0.0398 µM.
At PARP, `Cc1cc(-c2ccc(N3CCN(Cc4cnc5c(c4)NC(=O)[C@@H]4CCCCN54)CC3)cc2)ccn1` [Compound 167, (S)-3-((4-(4-(2-methylpyridin-4-yl)phenyl)piperazin-1-yl)methyl)-7,8,9,10-tetrahydro-5H-dipyrido[1,2-a:3′,2′-e]pyrazin-6(6aH)-one] gave an IC50 of 0.0158 to 0.0398 µM.
At PARP, `O=C1Nc2cc(CN3CCN(c4ccc(-c5cnccn5)cc4)CC3)cnc2N2CCCC[C@@H]12` [Compound 168, (S)-3-((4-(4-(pyrazin-2-yl)phenyl)piperazin-1-yl)methyl)-7,8,9,10-tetrahydro-5H-dipyrido[1,2-a:3′,2′-e]pyrazin-6(6aH)-one] had an IC50 of 0.0158 to 0.0398 µM.
Consider `COc1ncccc1-c1ccc(N2CCN(Cc3cnc4c(c3)NC(=O)[C@@H]3CCCCN43)CC2)cc1` [Compound 169, (S)-3-((4-(4-(2-methoxypyridin-3-yl)phenyl)piperazin-1-yl)methyl)-7,8,9,10-tetrahydro-5H-dipyrido[1,2-a:3′,2′-e]pyrazin-6(6aH)-one], for which, on PARP, the IC50 was at least 0.0501 µM.
